Measurements published in ChEMBL document CHEMBL5543103, “Toward a Template for Synthetic Actin-Targeting Macrolide Analogues That Inhibit Cancer Cell Invasiveness” (J Med Chem, 2024).
The source made the active and inactive calls. The rule behind the calls is not given here.

Legend:
Oryctolagus cuniculus = species on record: Oryctolagus cuniculus; experiment: (§1) Inhibition of rabbit skeletal muscle G-actin polymerization at 0.5 uM preincubated for 50 sec followed by ATP addition and measured for 600 sec by fluorescence spectrophotometer method relative to control; conditions: time 650.0 sec
Homo sapiens = species on record: Homo sapiens; experiment: Induction of F-actin depolymerization (unknown origin) at 10 uM measured for 900 sec in presence of ATP by fluorescence spectrophotometer method relative to MycB
L1210 = experiment: Cytotoxicity against mouse L1210 cells; type: functional, cell-based
A549 [1] = experiment: Inhibition of cell invasion in human A549 cells assessed as decrease in wound density at 10 uM after 50 hrs by IncuCyte live-cell imaging analysis; type: functional, cell-based
[2] = Partition coefficient, logP of compound; type: physicochemical; conditions: octanol/water
[3] = as §1; parameters: species or system Oryctolagus cuniculus
Cell membrane [4] = experiment: Disruption of membrane projections in human SK-OV-3 cells at 0.1 uM; type: cell membranes
A549 [5] = experiment: Inhibition of cell invasion in human A549 cells assessed as decrease in wound density at 0.1 uM after 50 hrs by IncuCyte live-cell imaging analysis; type: functional, cell-based
Cell membrane [6] = experiment: Disruption of membrane in human SKOV3 cells assessed as F-actin aggregates formation at 0.1 uM; type: cell membranes; conditions: SK-OV-3
B16 = experiment: Cytotoxicity against mouse B16 cells; type: functional, cell-based
KB = experiment: Cytotoxicity against human KB cells; type: functional, cell-based
Cell membrane [7] = experiment: Disruption of membrane in human SK-OV-3 cells assessed as F-actin aggregates formation at 1 uM; type: cell membranes
Cell membrane [8] = experiment: Disruption of membrane projections in human SK-OV-3 cells at 1 uM; type: cell membranes

| SMILES | inhibition (Oryctolagus cuniculus) [%] | Activity (Homo sapiens) [%] | further results |
| --- | --- | --- | --- |
| CCC(=O)O[C@@H](C[C@H](OC)[C@@H](C)CC[C@@H](OC(=O)C(C)C)[C@H](C)[C@H](OC)[C@H](C)/C=C/N1CCCCC1=O)C(C)C | 18 | 14 | – |
| CCC(=O)O[C@@H](C[C@H](OC)[C@@H](C)CC[C@@H](OC(=O)C(C)C)[C@H](C)[C@H](OC)[C@H](C)/C=C/N(C=O)CC(F)(F)F)C(C)C | 81 | 53 | – |
| CCC(=O)O[C@@H](C[C@H](OC)[C@@H](C)CC[C@@H](OC(=O)C(C)C)[C@H](C)[C@H](OC)[C@H](C)/C=C/N(C=O)CC)C(C)C | 85 | 87 | – |
| CO[C@H]([C@H](C)/C=C/N(C)C=O)[C@@H](C)C(=O)CC[C@H](C)[C@H](C[C@@H]1OC(=O)C[C@@H](OC(N)=O)C[C@H](C)C[C@H](O)[C@H](C)[C@@H](OC)c2coc(n2)-c2coc(n2)-c2coc(n2)/C=C/C[C@H](OC)[C@H]1C)OC [KABIRAMIDE C] | – | – | IC50 (L1210): 10 nM |
| CCC(=O)O[C@@H](C[C@H](OC)[C@@H](C)CC[C@@H](OC(=O)C(C)C)[C@H](C)C(OC)[C@H](C)/C=C/N(C=O)C1CC1)C(C)C (single isomer, unassigned) | 77 | 56 | – |
| CO[C@@H]([C@@H](C)[C@@H](CC[C@H](C)[C@H](C[C@H](OC(=O)CCCN)C(C)C)OC)OC(=O)[C@H]1CCCO1)[C@H](C)/C=C/N(C)C=O | 53 | 58 | inhibition (A549 [1]): Active; logP [2]: 4.18 |
| CCC(=O)O[C@H](CC)C[C@H](OC)[C@@H](C)CC[C@@H](OC(=O)CC)[C@H](C)[C@H](OC)[C@H](C)/C=C/N(C)C=O | – | 42 | IC50 [3]: 1000 nM |
| CCC(=O)O[C@@H](C[C@H](OC)[C@@H](C)CC[C@@H](OC(=O)[C@H]1CCCN1C)[C@H](C)[C@H](OC)[C@H](C)/C=C/N(C)C=O)C(C)C | 45 | 25 | – |
| CCC(=O)O[C@@H](C[C@H](OC)[C@@H](C)CC[C@@H](OC(=O)[C@@H]1CCCO1)[C@H](C)[C@H](OC)[C@H](C)/C=C/N(C)C=O)C(C)C | 50 | 67 | – |
| CO[C@@H]1C/C=C/c2nc(co2)-c2nc(co2)-c2nc(co2)[C@@H](C)CC(=O)CCC[C@@H](O)CC(=O)O[C@H](C[C@@H](OC)[C@@H](C)CCC(=O)[C@H](C)[C@H](OC(C)=O)[C@H](C)/C=C/N(C)C=O)[C@H]1C | – | – | IC50 (L1210): 10 nM |
| CCC(=O)O[C@@H](C[C@H](OC)[C@@H](C)CC[C@@H](OC(=O)[C@H]1CCCO1)[C@H](C)[C@H](OC)[C@H](C)/C=C/N(C=O)CC)C(C)C | 63 | 77 | logP [2]: 5.67 |
| CCC(=O)O[C@@H](C[C@H](OC)[C@@H](C)CC[C@@H](OC(=O)C1CCCCC1)[C@H](C)[C@H](OC)[C@H](C)/C=C/N(C)C=O)C(C)C | 65 | 20 | – |
| CCC(=O)O[C@@H](C[C@H](OC)[C@@H](C)CC[C@@H](OC(=O)C(C)C)[C@H](C)[C@H](OC)[C@H](C)/C=C/N1CCCC1=O)C(C)C | 29 | 26 | – |
| CO[C@@H](C[C@@H]1OC(=O)C[C@@H](O)C[C@H](O)C[C@H](O)[C@H](C)[C@@H](OC)c2coc(n2)-c2coc(n2)-c2coc(n2)/C=C/CC[C@H]1C)[C@@H](C)CCC(=O)[C@H](C)[C@@H](C/C=C/N(C)C=O)OC | – | – | IC50 (L1210): < 1 nM |
| CCC(=O)O[C@@H](C[C@H](OC)[C@@H](C)CC[C@@H](OC(=O)c1ccco1)[C@H](C)[C@H](OC)[C@H](C)/C=C/N(C)C=O)C(C)C | 43 | 41 | – |
| COC[C@@H](OC)C(=O)O[C@H](CC[C@H](C)[C@H](C[C@@H]1OC(=O)C[C@@H](O)C/C=C/C(=O)[C@H](C)[C@H](OC)c2coc(n2)-c2coc(n2)-c2coc(n2)/C=C/C[C@H](OC)[C@H]1C)OC)[C@H](C)[C@H](OC(C)=O)[C@H](C)/C=C/N(C)C=O | – | – | Activity (Cell membrane [4]): Active; inhibition (A549 [5]): Active; Activity (Cell membrane [6]): Active; IC50 (B16): 0.5 nM |
| CCC(=O)O[C@@H](C[C@H](OC)[C@@H](C)CC[C@@H](OC(=O)C1CCCC1)[C@H](C)[C@H](OC)[C@H](C)/C=C/N(C)C=O)C(C)C | 53 | 39 | – |
| CCC(=O)O[C@@H](C[C@H](OC)[C@@H](C)CC[C@@H](OC(=O)C(C)C)[C@H](C)[C@H](OC)[C@H](C)/C=C/N1CCC1=O)C(C)C | 30 | 12 | – |
| CO[C@@H]1CC2=CC(=O)O[C@H](C2)[C@H](C)[C@H](OC)C[C@@H](OC)/C=C/[C@H](C)[C@@H](OC)C[C@@H](OC)/C=C/[C@H](C)[C@@H]([C@@H](C)[C@@H](OC)[C@@H](C)CCC(=O)[C@H](C)[C@@H](C/C=C/N(C)C=O)OC)OC(=O)/C=C/C=C(\C)C1 | – | – | IC50 (KB): 100 nM |
| CCC(=O)O[C@H](CC)C[C@H](OC)[C@@H](C)CC[C@@H](OC(=O)C(C)C)[C@H](C)[C@H](OC)[C@H](C)/C=C/N(C)C=O | 40 | 33 | – |
| CCC(=O)O[C@@H](C[C@H](OC)[C@@H](C)CC[C@@H](OC(=O)C(C)C)[C@H](C)[C@H](OC)[C@H](C)/C=C/N(C)C=O)C(C)C | 21 | 6 | – |
| CCN(C=O)/C=C/[C@@H](C)[C@@H](OC)[C@@H](C)[C@@H](CC[C@H](C)[C@H](C[C@H](OC(=O)CCCN)C(C)C)OC)OC(=O)[C@H]1CCCO1 | – | – | Activity (Cell membrane [7]): Active; inhibition (A549 [1]): Active; Activity (Cell membrane [8]): Active; logP [2]: 4.55 |
| CCC(=O)O[C@@H](C[C@H](OC)[C@@H](C)CC[C@@H](OC(=O)C1CCC1)[C@H](C)[C@H](OC)[C@H](C)/C=C/N(C)C=O)C(C)C | 67 | 52 | – |
| CCC(=O)O[C@H](CC)C[C@H](OC)[C@@H](C)CC[C@H](OC(=O)CC)[C@H](C)[C@H](OC)[C@H](C)/C=C/N(C)C=O | – | 17 | IC50 [3]: 5500 nM |
| CCC(=O)O[C@@H](C[C@H](OC)[C@@H](C)CC[C@@H](OC(=O)[C@H]1CCCO1)[C@H](C)[C@H](OC)[C@H](C)/C=C/N(C)C=O)C(C)C | 72 | 75 | logP [2]: 5.3 |
| CCC(=O)O[C@@H](C[C@H](OC)[C@@H](C)CC[C@@H](OC(=O)C(C)C)[C@H](C)[C@H](OC)[C@H](C)/C=C/N(C)C=O)C1CCCCC1 | 52 | 45 | – |
| CC[C@@H](O)C[C@H](OC)[C@@H](C)CC[C@@H](OC(=O)C(C)C)[C@H](C)[C@H](OC)[C@H](C)/C=C/N(C)C=O | 30 | 0 | – |
| CCCN(C=O)/C=C/[C@@H](C)[C@@H](OC)[C@@H](C)[C@@H](CC[C@H](C)[C@H](C[C@H](OC(=O)CC)C(C)C)OC)OC(=O)C(C)C | 40 | 32 | – |
